Source: ChEMBL document CHEMBL1909046, “DrugMatrix in vitro pharmacology data”

What was measured:
[1] = target: Kappa-type opioid receptor (Homo sapiens, UniProt P41145); test: DRUGMATRIX: Opiate kappa (OP2, KOP) radioligand binding (ligand: [3H] Diprenorphine); type: cell membranes, HEK293, Membrane; details: hek293; Not Active = under 50% inhibition at 10 µM
[2] = target: Cannabinoid receptor 1 (Homo sapiens, UniProt P21554); type: cell membranes, Chem-1, Membrane; details: chem-1; also: in other assays of this panel Not Active means under 50% inhibition at 10 µM
Cannabinoid receptor 1, sequence (P21554 whole entry): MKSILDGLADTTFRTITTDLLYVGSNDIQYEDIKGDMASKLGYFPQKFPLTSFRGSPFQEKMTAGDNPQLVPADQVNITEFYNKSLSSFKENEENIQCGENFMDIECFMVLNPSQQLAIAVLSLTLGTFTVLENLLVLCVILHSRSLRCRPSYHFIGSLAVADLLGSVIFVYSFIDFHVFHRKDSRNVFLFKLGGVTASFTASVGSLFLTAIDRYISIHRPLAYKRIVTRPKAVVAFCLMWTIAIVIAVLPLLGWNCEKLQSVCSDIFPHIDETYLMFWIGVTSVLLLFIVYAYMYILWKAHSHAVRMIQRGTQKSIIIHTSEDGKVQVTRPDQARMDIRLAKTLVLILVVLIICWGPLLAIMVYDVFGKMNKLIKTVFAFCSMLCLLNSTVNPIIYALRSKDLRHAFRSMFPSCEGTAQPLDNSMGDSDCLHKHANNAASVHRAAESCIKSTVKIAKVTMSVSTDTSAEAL

[3] = DRUGMATRIX: Purinergic P2X radioligand binding (ligand: [3H] alpha, beta-Methylene-ATP); type: cell membranes, Oryctolagus cuniculus, New Zealand albino, Urinary bladder, Membrane; details: Not Active = under 50% inhibition at 10 µM
[4] = DRUGMATRIX: Glutamate, NMDA, Agonism radioligand binding (ligand: [3H] CGP-39653); type: cell membranes, Rattus norvegicus, Wistar, Cerebral cortex, Membrane; details: Not Active = under 50% inhibition at 10 µM
[5] = target: T1, 5-hydroxytryptamine receptor 1A (Rattus norvegicus, UniProt P19327); type: cell membranes, CHO-K1, Membrane; details: cho-k1; also: in other assays of this panel Not Active means under 50% inhibition at 10 µM
T1 sequence (P19327 whole entry): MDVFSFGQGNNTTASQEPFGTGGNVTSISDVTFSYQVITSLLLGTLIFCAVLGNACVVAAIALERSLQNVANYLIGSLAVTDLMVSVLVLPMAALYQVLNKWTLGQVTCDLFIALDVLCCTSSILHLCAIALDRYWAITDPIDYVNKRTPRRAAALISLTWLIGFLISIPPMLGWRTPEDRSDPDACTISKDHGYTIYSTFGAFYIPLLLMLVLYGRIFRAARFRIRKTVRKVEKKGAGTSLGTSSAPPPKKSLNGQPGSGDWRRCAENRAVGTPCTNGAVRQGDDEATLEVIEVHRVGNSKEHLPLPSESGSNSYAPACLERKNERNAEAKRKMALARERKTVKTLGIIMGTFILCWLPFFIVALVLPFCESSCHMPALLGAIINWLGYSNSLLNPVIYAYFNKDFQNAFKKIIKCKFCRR

[6] = target: T2, Cytochrome P450 2A6 (Homo sapiens, UniProt P11509); details: bti-tn-5b1-4; also: in other assays of this panel Not Active means under 50% inhibition at 10 µM
T2 sequence (P11509 whole entry): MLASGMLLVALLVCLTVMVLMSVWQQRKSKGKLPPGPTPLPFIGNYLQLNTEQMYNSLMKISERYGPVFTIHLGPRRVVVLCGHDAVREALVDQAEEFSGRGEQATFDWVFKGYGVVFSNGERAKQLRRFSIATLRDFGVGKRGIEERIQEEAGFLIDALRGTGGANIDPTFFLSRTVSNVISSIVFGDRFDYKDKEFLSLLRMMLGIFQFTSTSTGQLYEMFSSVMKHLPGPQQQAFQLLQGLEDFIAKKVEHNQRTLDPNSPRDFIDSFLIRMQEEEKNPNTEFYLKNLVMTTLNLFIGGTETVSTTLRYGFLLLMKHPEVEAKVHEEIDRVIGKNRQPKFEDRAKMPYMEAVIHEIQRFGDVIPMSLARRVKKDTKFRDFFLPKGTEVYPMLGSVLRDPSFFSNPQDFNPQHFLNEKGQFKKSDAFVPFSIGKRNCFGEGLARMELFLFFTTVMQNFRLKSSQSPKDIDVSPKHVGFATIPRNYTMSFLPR

[7] = target: T3, Polyunsaturated fatty acid lipoxygenase ALOX15 (Oryctolagus cuniculus, UniProt P12530); test: biochemical; type: tissue-based, Reticulocytes; details: reticulocytes;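 also: inhibition of 15-lipoxygenase enzyme activity measured with linoleic acid as the substrate; in other assays of this panel Not Active means under 50% inhibition at 10 µM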
T3 sequence (P12530 whole entry): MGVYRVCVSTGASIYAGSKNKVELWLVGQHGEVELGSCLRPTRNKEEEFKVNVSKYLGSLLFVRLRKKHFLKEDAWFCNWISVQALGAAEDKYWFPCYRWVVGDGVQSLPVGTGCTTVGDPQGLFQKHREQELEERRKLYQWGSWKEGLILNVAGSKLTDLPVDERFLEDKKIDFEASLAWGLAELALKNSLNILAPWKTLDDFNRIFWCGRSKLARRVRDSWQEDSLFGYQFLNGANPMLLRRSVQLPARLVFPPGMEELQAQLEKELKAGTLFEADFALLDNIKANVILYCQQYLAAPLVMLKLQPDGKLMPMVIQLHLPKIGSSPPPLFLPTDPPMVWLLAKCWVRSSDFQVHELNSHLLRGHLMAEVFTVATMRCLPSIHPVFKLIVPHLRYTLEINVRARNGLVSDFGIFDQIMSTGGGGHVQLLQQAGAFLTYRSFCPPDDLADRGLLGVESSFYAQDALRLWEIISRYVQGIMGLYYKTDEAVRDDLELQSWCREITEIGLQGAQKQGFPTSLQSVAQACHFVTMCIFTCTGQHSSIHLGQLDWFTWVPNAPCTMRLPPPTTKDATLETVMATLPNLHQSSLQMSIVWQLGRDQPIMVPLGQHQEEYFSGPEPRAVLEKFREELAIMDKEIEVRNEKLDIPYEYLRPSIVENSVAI

Kappa-type opioid receptor, sequence (P41145 whole entry): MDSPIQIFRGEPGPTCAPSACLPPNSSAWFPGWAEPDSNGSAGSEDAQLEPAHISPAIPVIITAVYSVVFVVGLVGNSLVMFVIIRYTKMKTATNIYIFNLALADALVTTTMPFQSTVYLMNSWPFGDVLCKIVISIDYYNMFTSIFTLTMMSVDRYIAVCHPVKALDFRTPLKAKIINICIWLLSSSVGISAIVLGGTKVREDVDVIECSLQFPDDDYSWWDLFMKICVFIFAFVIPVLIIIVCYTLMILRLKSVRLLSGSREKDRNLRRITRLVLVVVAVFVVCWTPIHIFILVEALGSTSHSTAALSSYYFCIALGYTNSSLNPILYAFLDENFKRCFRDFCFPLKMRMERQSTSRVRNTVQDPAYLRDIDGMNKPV

CC(C)Cn1cnc2c(N)nc3ccccc3c21 [IMIQUIMOD]
Not Active: IC50 [1] | IC50 [2] | IC50 [3] | Ki [3] | IC50 [4] | Ki [4] | IC50 [5] | IC50 [6] | Ki [6] | IC50 [7]

C[N+](C)(C)CCOP(=O)([O-])OC[C@H](O)CO
Not Active: IC50 [1] | IC50 [2] | IC50 [3] | Ki [3] | IC50 [4] | Ki [4] | IC50 [5] | IC50 [6] | Ki [6] | IC50 [7]

OC[C@H]1O[C@@H]2O[C@H]3[C@H](O)[C@@H](O)[C@@H](O[C@H]4[C@H](O)[C@@H](O)[C@@H](O[C@H]5[C@H](O)[C@@H](O)[C@@H](O[C@H]6[C@H](O)[C@@H](O)[C@@H](O[C@H]7[C@H](O)[C@@H](O)[C@@H](O[C@H]8[C@H](O)[C@@H](O)[C@@H](O[C@H]1[C@H](O)[C@H]2O)O[C@@H]8CO)O[C@@H]7CO)O[C@@H]6CO)O[C@@H]5CO)O[C@@H]4CO)O[C@@H]3CO [BETADEX]
Not Active: IC50 [1] | IC50 [2] | IC50 [3] | Ki [3] | IC50 [4] | Ki [4] | IC50 [5] | IC50 [6] | Ki [6] | IC50 [7]

O=C(O)COC(=O)Cc1ccccc1Nc1c(Cl)cccc1Cl [ACECLOFENAC]
Not Active: IC50 [1] | IC50 [2] | IC50 [3] | Ki [3] | IC50 [4] | Ki [4] | IC50 [5] | IC50 [6] | Ki [6] | IC50 [7]

COc1ccc(C[C@H](N)C(=O)N[C@H]2[C@@H](O)[C@H](n3cnc4c(N(C)C)ncnc43)O[C@@H]2CO)cc1 [PUROMYCIN]
Not Active: IC50 [1] | IC50 [2] | IC50 [3] | Ki [3] | IC50 [4] | Ki [4] | IC50 [5] | IC50 [6] | Ki [6] | IC50 [7]

O=C(O)c1ccccc1 [BENZOIC ACID]
Not Active: IC50 [1] | IC50 [2] | IC50 [3] | Ki [3] | IC50 [4] | Ki [4] | IC50 [5] | IC50 [6] | Ki [6] | IC50 [7]

C[C@H]1C[C@H]2[C@@H]3CCC4=CC(=O)C=C[C@]4(C)[C@@]3(F)[C@@H](O)C[C@]2(C)[C@@]1(O)C(=O)CO [BETAMETHASONE]
Not Active: IC50 [1] | IC50 [2] | IC50 [3] | Ki [3] | IC50 [4] | Ki [4] | IC50 [5] | IC50 [6] | Ki [6] | IC50 [7]

Oc1ccccc1 [PHENOL]
Not Active: IC50 [1] | IC50 [2] | IC50 [3] | Ki [3] | IC50 [4] | Ki [4] | IC50 [5] | IC50 [6] | Ki [6] | IC50 [7]

C[C@H](C(=O)O)c1ccc2oc(-c3ccc(F)cc3)nc2c1 [FLUNOXAPROFEN]
Not Active: IC50 [1] | IC50 [2] | IC50 [3] | Ki [3] | IC50 [4] | Ki [4] | IC50 [5] | IC50 [6] | Ki [6] | IC50 [7]

C[C@@H]1[C@H](O)[C@@H](C)/C=C/C=C/C=C/C=C/C=C/C=C/C=C/[C@H](O[C@@H]2O[C@H](C)[C@@H](O)[C@H](N)[C@@H]2O)C[C@@H]2O[C@](O)(C[C@@H](O)C[C@@H](O)[C@H](O)CC[C@@H](O)C[C@@H](O)CC(=O)O[C@H]1C)C[C@H](O)[C@H]2C(=O)O [AMPHOTERICIN B]
Not Active: IC50 [1] | IC50 [2] | IC50 [3] | Ki [3] | IC50 [4] | Ki [4] | IC50 [5] | IC50 [6] | Ki [6] | IC50 [7]
